The term IC50 denotes the point on the concentration scale where inhibition reaches its midpoint.

For this test, the target named is COVID-19 virus M^pro (Severe acute respiratory syndrome coronavirus 2, UniProt P0DTD1). As to the kind of experiment: enzymatic inhibition assay. It is filed as biochemical.

In turn, `CN(C)CCCSc1ccccc1NC(=O)/C=C/c1ccccc1` [cinanserin] gave an IC50 of 125 µM.

The record behind these values is paper doi:10.1101/2020.02.26.964882v3 (biorxiv, 2020).
